# Assay results from patent publication US9783573B2, “IAP antagonists” (BRISTOL-MYERS SQUIBB COMPANY, priority 2012, dated 2017).
# Molecular target: N-His-Tb-BIR3 (241-356, XIAP) (Homo sapiens (Human), UniProt P98170)
# Assay: biochemical
# Assay type: binding
# Conditions: not given
row,SMILES,IC50
1,"CN[C@@H](C)C(=O)N[C@H](C(=O)N1Cc2cc(NC(=O)c3ccc(C(=O)N[C@H]4C[C@@H](C(=O)N[C@@H]5CCCc6ccccc65)N(C(=O)[C@@H](NC(=O)[C@@H](NC)C(C)C)C(C)(C)C)C4)cc3)ccc2C[C@H]1C(=O)N[C@@H]1CCCc2ccccc21)C(C)(C)C [Example 36, N^1-((S)-2-((S)-3,3-dimethyl-2-((S)-2-(methylamino)propanamido)butanoyl)-3-(((R)-1,2,3,4-tetrahydronaphthalen-1-yl)carbamoyl)-1,2,3,4-tetrahydroisoquinolin-7-yl)-N^4-((3S,5S)-1-((S)-3,3-dimethyl-2-((S)-3-methyl-2-(methylamino)butanamido)butanoyl)-5-(((R)-1,2,3,4-tetrahydronaphthalen-1-yl)carbamoyl)pyrrolidin-3-yl)terephthalamide]",0.19 µM

# Same assay, conditions: fluoresceinated modified SMAC peptide, fluorescence polarization; read-out: XIAP BIR3 FPA IC50
row,SMILES,IC50
1,"CN[C@@H](C)C(=O)N[C@H](C(=O)N1Cc2cc(C(=O)NC(C)(C)C(=O)N[C@H]3C[C@@H](C(=O)N[C@@H]4CCCc5ccccc54)N(C(=O)[C@@H](NC(=O)[C@H](C)NC)C(C)(C)C)C3)ccc2C[C@H]1C(=O)N[C@@H]1CCCc2ccccc21)C(C)(C)C [Example 29, (S)-2-((S)-3,3-Dimethyl-2-((S)-2-(methylamino)propanamido)butanoyl)-N7-(1-(((3S,5S)-1-((S)-3,3-dimethyl-2-((S)-2-(methylamino)propanamido)butanoyl)-5-(((R)-1,2,3,4-tetrahydronaphthalen-1-yl)carbamoyl)pyrrolidin-3-yl)amino)-2-methyl-1-oxopropan-2-yl)-N3-((R)-1,2,3,4-tetrahydronaphthalen-1-yl)-1,2,3,4-tetrahydroisoquinoline-3,7-dicarboxamide]",0.061 µM
2,"CN[C@@H](C)C(=O)N[C@H](C(=O)N1CC[C@@H](OCc2ccc(C(=O)N[C@H]3C[C@@H](C(=O)N[C@@H]4CCCc5ccccc54)N(C(=O)[C@@H](NC(=O)[C@H](C)NC)C(C)(C)C)C3)cc2)C[C@H]1C(=O)N[C@@H]1CCCc2ccccc21)C(C)(C)C [Example 30, (2S,4R)-1-((S)-3,3-Dimethyl-2-((S)-2-(methylamino)propanamido)butanoyl)-4-((4-(((3S,5S)-1-((S)-3,3-dimethyl-2-((S)-2-(methylamino)propanamido)butanoyl)-5-(((R)-1,2,3,4-tetrahydronaphthalen-1-yl)carbamoyl)pyrrolidin-3-yl)carbamoyl)benzyl)oxy)-N—((R)-1,2,3,4-tetrahydronaphthalen-1-yl)piperidine-2-carboxamide]",0.038 µM
3,"CN[C@@H](C)C(=O)N[C@H](C(=O)N1Cc2cc(NCc3ccc(C(=O)N[C@H]4C[C@@H](C(=O)N[C@@H]5CCCc6ccccc65)N(C(=O)[C@@H](NC(=O)[C@H](C)NC)C(C)(C)C)C4)cc3)ccc2C[C@H]1C(=O)N[C@@H]1CCCc2ccccc21)C(C)(C)C [Example 31, (S)-2-((S)-3,3-Dimethyl-2-((S)-2-(methylamino)propanamido)butanoyl)-7-((4-(((3S,5S)-1-((S)-3,3-dimethyl-2-((S)-2-(methylamino)propanamido)butanoyl)-5-(((R)-1,2,3,4-tetrahydronaphthalen-1-yl)carbamoyl)pyrrolidin-3-yl)carbamoyl)benzyl)amino)-N—((R)-1,2,3,4-tetrahydronaphthalen-1-yl)-1,2,3,4-tetrahydroisoquinoline-3-carboxamide]",0.071 µM
4,"CN[C@@H](C)C(=O)N[C@H](C(=O)N1Cc2cc(N(Cc3ccc(C(=O)N[C@H]4C[C@@H](C(=O)N[C@@H]5CCCc6ccccc65)N(C(=O)[C@@H](NC(=O)[C@H](C)NC)C(C)(C)C)C4)cc3)C(C)=O)ccc2C[C@H]1C(=O)N[C@@H]1CCCc2ccccc21)C(C)(C)C [Example 32, (S)-2-((S)-3,3-Dimethyl-2-((S)-2-(methylamino)propanamido)butanoyl)-7-(N-(4-(((3S,5S)-1-((S)-3,3-dimethyl-2-((S)-2-(methylamino)propanamido)butanoyl)-5-(((R)-1,2,3,4-tetrahydronaphthalen-1-yl)carbamoyl)pyrrolidin-3-yl)carbamoyl)benzyl)acetamido)-N—((R)-1,2,3,4-tetrahydronaphthalen-1-yl)-1,2,3,4-tetrahydroisoquinoline-3-carboxamide]",0.035 µM
5,"CN[C@@H](C)C(=O)N[C@H](C(=O)N1Cc2cc(NCc3ccc(C(=O)N[C@H]4C[C@@H](C(=O)N[C@@H]5CCCc6ccccc65)N(C(=O)[C@@H](NC(=O)[C@H](C)NC)C(C)(C)C)C4)cc3Cl)ccc2C[C@H]1C(=O)N[C@@H]1CCCc2ccccc21)C(C)(C)C [Example 33, (S)-7-((2-Chloro-4-(((3S,5S)-1-((S)-3,3-dimethyl-2-((S)-2-(methylamino)propanamido)butanoyl)-5-(((R)-1,2,3,4-tetrahydronaphthalen-1-yl)carbamoyl)pyrrolidin-3-yl)carbamoyl)benzyl)amino)-2-((S)-3,3-dimethyl-2-((S)-2-(methylamino)propanamido)butanoyl)-N—((R)-1,2,3,4-tetrahydronaphthalen-1-yl)-1,2,3,4-tetrahydroisoquinoline-3-carboxamide]",0.066 µM
6,"CCN[C@@H](C)C(=O)N[C@H](C(=O)N1Cc2cc(NC(=O)c3ccc(C(=O)N[C@H]4C[C@@H](C(=O)N[C@@H]5CCCc6ccccc65)N(C(=O)[C@@H](NC(=O)[C@H](C)NC)C(C)(C)C)C4)cc3)ccc2C[C@H]1C(=O)N[C@@H]1CCCc2ccccc21)C(C)(C)C [Example 34, N^1-((3S,5S)-1-((S)-3,3-dimethyl-2-((S)-2-(methylamino)propanamido)butanoyl)-5-(((R)-1,2,3,4-tetrahydronaphthalen-1-yl)carbamoyl)pyrrolidin-3-yl)-N^4-((S)-2-((S)-2-((S)-2-(ethylamino)propanamido)-3,3-dimethylbutanoyl)-3-(((R)-1,2,3,4-tetrahydronaphthalen-1-yl)carbamoyl)-1,2,3,4-tetrahydroisoquinolin-7-yl)terephthalamide]",0.15 µM
7,CN[C@@H](C)C(=O)N[C@H](C(=O)N1C[C@@H](NC(=O)c2ccc(C(=O)Nc3ccc4c(c3)CN(C(=O)[C@@H](NC(=O)[C@@H](NC)C(C)C)C(C)(C)C)[C@H](C(=O)N[C@@H]3CCCc5ccccc53)C4)cc2)C[C@H]1C(=O)N[C@@H]1CCCc2ccccc21)C(C)(C)C [Example 35],0.2 µM
8,"CN[C@@H](C)C(=O)N[C@H](C(=O)[C@@H]1C[C@H](NC(=O)[C@@H](CCC(F)(F)F)[C@@H](CCC(F)(F)F)C(=O)Nc2ccc3c(c2)CN(C(=O)[C@@H](NC(=O)[C@H](C)NC)C(C)(C)C)[C@H](C(=O)N[C@@H]2CCCc4ccccc42)C3)CN1C(=O)N[C@@H]1CCCc2ccccc21)C(C)(C)C [Example 37, (2S,3R)-N^1-((3S,5S)-5-((S)-3,3-dimethyl-2-((S)-2-(methylamino)propanamido)butanoyl)-1-(((R)-1,2,3,4-tetrahydronaphthalen-1-yl)carbamoyl)pyrrolidin-3-yl)-N^4-((S)-2-((S)-3,3-dimethyl-2-((S)-2-(methylamino)propanamido)butanoyl)-3-(((R)-1,2,3,4-tetrahydronaphthalen-1-yl)carbamoyl)-1,2,3,4-tetrahydroisoquinolin-7-yl)-2,3-bis(3,3,3-trifluoropropyl) succinamide]",0.11 µM
